Test results as given in patent publication US20220183287A1, “METHODS FOR KILLING PESTS” (The United States of America, as represented by the …, priority 2020, published 2022).
Where “and” joins values, the source holds several entries; their conditions need not be identical. Identical values can stand only once. Marks after values point to notes of the source that are not given here.

Key:
[1] = system: M. incognita eggs; assay: Microwell assay: eggs immersed in compounds, hatch and activity of hatched J2; type: in vivo, Meloidogyne incognita; conditions: 0.1%; for % Active Day 2 / % Active Day 5 / % Active Day 7: J2 hatched from immersed eggs; for Hatch Day 2 / Hatch Day 5 / Hatch Day 7: hatched J2 per well, about 35 eggs per well
Protocol: (§1) All chemicals were used without further purification.
(§2) These are reported as 0.1% herein.
(§3) The nematodes were then incubated at 26° C. […] Two trials were conducted for each assay.
(§4) The assumptions of the model were checked.

[2] = system: M. incognita second-stage juveniles; assay: Microwell assay: previously hatched J2 immersed in compounds, activity and viability; conditions: for % Active Day 1 / % Active Day 2: 0.1%, previously hatched J2 in aqueous solution; for viability at 0.1 % / mortality at 0.1 %: Meloidogyne incognita, 72 h; for viability at 0.1 %: read-out: % Viable Day 3 rinsed; for mortality at 0.1 %: read-out: nonviable (killed) J2
Protocol: Nematode cultures: As described in Meyer et al. (Meyer, S. L. F., et al., Nematropica, 46: 85-96 (2016)), M. incognita race 1 (originally isolated in Maryland) was maintained in a greenhouse (24° to 29° C.; natural and supplemental lighting combined for a 16-h daylength) on susceptible cayenne pepper (Capsicum annuum) TA-136′ plants. All greenhouse experiments described herein were conducted under the same conditions. Two to three months after pepper plant inoculation, egg masses were picked from roots. Eggs were separated by 5 min immersion in 0.6% sodium hypochlorite, followed by a rinse in sterile distilled water (SDW). To collect second-stage juveniles (J2) for microwell assays, the surface-sterilized eggs were placed in a hatching chamber (Spectra/Mesh Nylon Filter, openings 25-μm-diam.; Spectrum Laboratories Inc., Rancho Dominguez, Calif.) set in an autoclaved dish that was placed on a rotary shaker for 3 days at 35 rpm. For some M. incognita and H. glycines assays, 25 or […] kanamycin monosulfate (Phytotechnology Laboratories, Shawnee Mission, Kans.) was added to the hatching chamber to prevent growth of bacteria. The collected J2 were then rinsed with water to remove the kanamycin monosulfate.
(§5) Compounds for the studies were purchased from three different companies: methyl benzoate, CAS Number 93-58-3, ≥99% purity; Tween 20, CAS Number: 9005-64-5; Tween 80, CAS Number: 9005-65-6; ethyl benzoate, CAS Number: 93-89-0, natural, ≥99% purity, FCC, FG; vinyl benzoate, CAS Number: 769-78-8, ≥99% purity; n-propyl benzoate, CAS Number: 2315-68-6, 99% purity; n-butyl benzoate, CAS Number: 136-60-7, 99% purity; benzyl benzoate, CAS Number: 120-51-4, natural, ≥99% purity, FCC, FG; methyl 2-methylbenzoate, CAS Number: 89-71-4, 99% purity; methyl 2-chlorobenzoate, CAS Number: 610-96-8, ≥98% purity; methyl 2-methoxybenzoate, CAS Number: 606-45-1, 99% purity and methyl 2-nitrobenzoate, CAS Number: 606-27-9, 98% purity were purchased from Sigma-Aldrich (St. Louis, Mo.). Compounds, iso-butyl benzoate, CAS Number 120-50-3, >98% purity; n-pentyl benzoate, CAS Number: 2049-96-9, ≥98% purity; and n-hexyl benzoate, CAS Number: 6789-88-4, ≥98% purity were purchased from Alfa Aesar (Tewksbury, Mass.). The compounds methyl 3-methoxybenzoate (methyl m-anisate), CAS Number: 5368-81-0; 97% and methyl 3-methylbenzoate (methyl m-toluate), CAS Number: 99-36-5, 97% purity were purchased from TCI America (Portland, Oreg.). All chemicals were used without further purification. Deionized water (DI) containing 1% emulsifier (v/v), Tween 20 and Tween 80, at 1:1 ratio was used to make different VOCs (volatile organic compounds) water solutions and also used as blank control.
(§6) For tests with individual compounds, the concentration of each compound was 0.1% before placement into wells; the final concentration in the wells was 0.095% after addition to eggs or J2 suspended in water. These are reported as 0.1% herein. An exception was Trial 2, M. incognita J2 activity and viability (Table 2): the final concentration was 0.1% after placement in wells. Low concentrations were selected for assays of combined compounds to determine if the combinations would increase nematotoxicity.
(§7) Laboratory assays were conducted in 96-well polystyrene plates following general procedures described in Wen et al. (2019). Each well received approximately 35 J2 (for previously hatched J2 assays) or 35 eggs that each contained either a first-stage juvenile (J1) or a J2. The plates were covered with plastic adhesive sealing film (Excel Scientific, Inc., Victorville Calif.) and then with the plate lids. Parafilm (Bemis, Neenah, Wis.) was used to seal the plates. The nematodes were then incubated at 26° C. […] Following the counts on Day 2, the treatments were removed and the J2 rinsed twice with SDW and incubated in the second rinse. […] Two trials were conducted for each assay.

[3] = system: Heterodera glycines eggs; assay: Microwell assay: eggs immersed in compounds, hatch and activity of hatched J2; type: in vivo; conditions: 0.1%; for % Active Day 2 / % Active Day 5 / % Active Day 7: J2 hatched from immersed eggs; for Hatch Day 2 / Hatch Day 5 / Hatch Day 7: hatched J2 per well, about 35 eggs per well; for pest or weed control at 0.1 %: Heterodera glycines, 168 h, Day 7, read-out: egg hatch suppression compared with the Tween control
Protocol: as §1, §2, §3, §4

[4] = system: H. glycines second-stage juveniles; assay: Microwell assay: previously hatched J2 immersed in compounds, activity and viability; conditions: for % Active Day 1 / % Active Day 2: previously hatched J2 in aqueous solution; for viability at 0.1 %: Heterodera glycines, 72 h, read-out: % Viable Day 3 rinsed
Protocol: The isolate of H. glycines race 3, originally isolated in Maryland, was maintained on soybean (Glycine max cv. ‘Essex’). As previously described (Wen, Y., et al. Plant Disease, 103: 2191-2198 (2019)), the roots were gently rubbed in water to dislodge cysts and mature females. The egg suspensions were then poured through nested sieves (#20 over /#60; pore sizes 850 μm and 250 μm diam., respectively) into a 454 g/liter sucrose solution. After 15 min, the cysts and females and cysts that floated to the top were collected, rinsed in water, and crushed with a rubber stopper on a #60 sieve (250-μm diam. pore size) that was partially submerged in distilled water. The egg suspension was washed through nested #230 over #500 sieves (pore sizes 63 μm and 25-μm diam., respectively). The eggs were collected in distilled water, and J2 hatched as described above.
as §5, §6, §7
Statistical analyses: The data were analyzed as either a general linear model using JMP or a generalized linear model for the best distribution to fit the residual using Proc Glimmix (Sas Institute). The assumptions of the model were checked. If not met, then appropriate statistical techniques were used so that data could met the assumptions of the models. In Sas, mean comparisons were done with Sidak adjusted p-values to hold the experiment-wise error at 0.05.

| Structure (SMILES) | % Active Day 2 [1] | % Active Day 5 [1] | % Active Day 7 [1] | Hatch Day 2 [1] | Hatch Day 5 [1] | Hatch Day 7 [1] | % Active Day 1 [2] | % Active Day 2 [2] | viability at 0.1 % [2] | mortality at 0.1 % [2] | % Active Day 2 [3] | % Active Day 5 [3] | % Active Day 7 [3] | Hatch Day 2 [3] | Hatch Day 5 [3] | Hatch Day 7 [3] | % Active Day 1 ([4]; 0.1%) | % Active Day 2 ([4]; 0.1%) | viability at 0.1 % [4] | nonviable (killed) J2 ([2]; in vivo) | also measured |
| --- | --- | --- | --- | --- | --- | --- | --- | --- | --- | --- | --- | --- | --- | --- | --- | --- | --- | --- | --- | --- | --- |
| CC(C)COC(=O)c1ccccc1 [iBB, iso-Butyl benzoate] | 61.2 ^ab % | 51.6 ^bc % | 38.0 ^b % | 6.4 ^abc | 7.2 ^bcd | 8.2 ^bcd | 54.8 ^ab % | 41.1 ^b % | 42.9% | 52% | 22.4 ^cd % | 18.4 ^cde % | 13.6 ^bc % | 6.7 ^bcd | 7.5 ^bcd | 7.3 ^bcd | 55.6 ^c % | 45.2 ^cd % | 34.5% |  | decrease in % active J2 compared with the Tween control ([1]; J2 hatched from eggs, 7-day incubation): 60%; reduction in % viable J2 compared with the Tween control ([4]; 0.1%, Day 3 following water rinse): 43% |
| CCCCOC(=O)c1ccccc1 [nBB, n-Butyl benzoate] | 17.1 ^b % | 0 ^e % | 0% and 0 ^c % | 3.3 ^cd | 4.1 ^cde | 4.6 ^de | 14.8 ^cd % | 5.8 ^c % | 2.9% |  | 3.6 ^d % | 9.2 ^de % | 8.8 ^bc % | 5.2 ^cd | 5.6 ^cd | 5.4 ^cd | 52.7 ^c % | 24.2 ^ef % | 26.3% | killed most of the J2 | pest or weed control at 0.1 % [3]: 64 to 80% |
| CCCCCCOC(=O)c1ccccc1 [nHB, n-Hexyl benzoate] | 73.2 ^ab % | 40.5 ^cd % | 16.5 ^b % | 11.6 ^ab | 13.0 ^b | 13.0 ^bc | 84.5 ^a % | 82.4 ^c % | 66.3% |  | 19.1 ^cd % | 16.8 ^cde % | 14.6 ^bc % | 7.3 ^bcd | 7.5 ^bcd | 7.6 ^bcd | 73.2 ^ab % | 63.5 ^ab % | 46.2% |  | % Viable Day 3 rinsed ([2]; in vivo): did not have a significant effect |
| CCCCCOC(=O)c1ccccc1 [nPeB, n-Pentyl benzoate] | 31.5 ^b % | 0 ^e % | 0% and 0 ^c % | 4.9 ^bcd |  | 6.6 ^cde | 29.9 ^bc % | 22.9 ^b % | 16.5% |  | 4.2 ^d % | 4.3 ^e % | 4.2 ^c % | 7.6 ^bcd | 7.7 ^bcd | 7.5 ^bcd | 54.0 ^c % | 29.1 ^de % | 28.4% | killed most of the J2 |  |
| CCCOC(=O)c1ccccc1 [nPrB, n-Propyl benzoate] | 0 ^c % | 0 ^e % | 0 ^c % | 3.5 ^cd | 4.0 ^cde | 4.1 ^de | 0 ^f % | 0 ^d % | 0% | 100% | 2.2 ^d % | 0 ^f % | 0 ^d % | 5.8 ^cd | 5.8 ^cd | 5.6 ^cd | 17.2 ^d % | 10.8 ^fg % | 12.1% |  | hatch suppression compared to the Tween control ([3]; Day 2): 60%; inactive J2 that hatched from the eggs ([3]; by Day 7): 100%; pest or weed control at 0.1 % [3]: 64 to 80% |
